Source: paper PMC12118186 (2023)

Legend:
[1] = system: SA1 (DNA, aptamer) ACGACCTGACTTCCCATGGGATCTTCACTTAAATGGTCGT; assay: ThT fluorescence displacement titration; details: 100 mM Na+, pH 6.0, 1 μM DNA; for binding: 1 mM Mg2+, MES, 2 μM thioflavin T, 30 μM compound
[2] = system: SA1 (DNA, aptamer) ACGACCTGACTTCCCATGGGATCTTCACTTAAATGGTCGT; assay: fluorescence enhancement; details: 100 mM Na+, 1 mM Mg2+ (Figure 2 legend; methods: 5 mM); 10 mM MES, pH 6.0; 1 μM DNA, 2 μM thioflavin T; described as nonspecific
[3] = system: SA1 (DNA, aptamer) ACGACCTGACTTCCCATGGGATCTTCACTTAAATGGTCGT; assay: ITC; details: 100 mM Na+, 5 mM Mg2+; 10 mM MES, pH 6.0, 25°C; one-site fit; 20 μM aptamer
[4] = system: SA2 (DNA, aptamer) ACGACGGGGGACCGGAAACAAGTGCAAAACGCTTCGTCGT; assay: ThT fluorescence displacement titration; details: 100 mM Na+, 1 mM Mg2+ (Figure 2 legend; methods: 5 mM); 10 mM MES, pH 6.0; apparent; tracer 2 μM thioflavin T; signal change only about 20%

Compound: CC(=O)Oc1ccccc1C(=O)O
- binding [1]: no

Compound: Cc1ccc2c(c1)sc(-c1ccc(N(C)C)cc1)[n+]2C
- binding [2]: yes

Compound: O=C(O)c1ccc(O)cc1
- binding [1]: weak

Compound: O=C(O)c1ccccc1O
- Kd ([1]; 1 mM Mg2+ (Figure 2 legend; methods: 5 mM), 10 mM MES, apparent, tracer 2 μM thioflavin T): 5.8 µM
- Kd [3]: 26.7 ± 5.6 µM
- Kd [4]: 11 µM
